From PMC2721690 (2009)

Tests used:
Assay in all cases: ITC
[1] = system: GR (xpt-pbuX guanine riboswitch) (RNA, riboswitch) GGACAUAUAAUCGCGUGGAUAUGGCACGCAAGUUUCUACCGGGCACCGUAAAUGUCCGACUAUGUCC; settings: 100 mM KCl, 10 mM MgCl2
[2] = system: GRA (GR C74U) (RNA, riboswitch) GGACAUAUAAUCGCGUGGAUAUGGCACGCAAGUUUCUACCGGGCACCGUAAAUGUCCGAUUAUGUCC; settings: 100 mM KCl, 10 mM MgCl2; for KD: apparent
[3] = system: GR(A21G/U75C) (RNA, riboswitch) GGACAUGUAAUCGCGUGGAUAUGGCACGCAAGUUUCUACCGGGCACCGUAAAUGUCCGACCAUGUCC; settings: 100 mM KCl, 10 mM MgCl2; 50 mM K-HEPES, pH 7.5, 30 °C; apparent
[4] = system: GRA(A21U/U75A) (RNA, riboswitch) GGACAUUUAAUCGCGUGGAUAUGGCACGCAAGUUUCUACCGGGCACCGUAAAUGUCCGAUAAUGUCC; settings: 100 mM KCl, 10 mM MgCl2; 50 mM K-HEPES, pH 7.5, 30 °C; apparent
[5] = system: GRA(A21G/U75C) (RNA, riboswitch) GGACAUGUAAUCGCGUGGAUAUGGCACGCAAGUUUCUACCGGGCACCGUAAAUGUCCGAUCAUGUCC; settings: 100 mM KCl, 10 mM MgCl2; 50 mM K-HEPES, pH 7.5, 30 °C; apparent
[6] = system: GR(A21U/U75A) (RNA, riboswitch) GGACAUUUAAUCGCGUGGAUAUGGCACGCAAGUUUCUACCGGGCACCGUAAAUGUCCGACAAUGUCC; settings: 100 mM KCl, 10 mM MgCl2; 50 mM K-HEPES, pH 7.5, 30 °C; apparent
[7] = 50 mM K-HEPES, pH 7.5, 30 °C, apparent
[8] = data not shown, text says "GR or GRA"
[9] = 50 mM K-HEPES, pH 7.5, 30 °C, no detectable binding

For CNc1nc2[nH]cnc2c(=O)[nH]1, the binding ([1]; 50 mM K-HEPES, pH 7.5, 30 °C, data not shown) was “no”.

In the case of COc1nc(N)nc2[nH]cnc12, the KD [1, 7] is reported as 23 ± 6 µM and the KD ([2]; 50 mM K-HEPES, pH 7.5, 30 °C) is reported as 20 ± 6 µM.

For CSc1nc(N)nc2[nH]cnc12, the binding [1, 8] was “no”.

Nc1nc(=S)c2[nH]cnc2[nH]1 showed a KD [1, 7] of 0.073 µM.

In the case of Nc1nc(Br)c2[nH]cnc2n1, the KD [1, 7] is reported as 2.1 ± 0.6 µM and the KD ([2]; 50 mM K-HEPES, pH 7.5, 30 °C) is reported as 2.7 ± 1.2 µM.

Nc1nc(Cl)c2[nH]cnc2n1 gave a KD [1, 7] of 0.89 ± 0.06 µM, a KD ([2]; 50 mM K-HEPES, pH 7.5, 30 °C) of 0.72 ± 0.04 µM and a KD [3] of 24 ± 6.0 µM.

In the case of Nc1nc(F)nc2[nH]cnc12, the KD ([2]; 50 mM K-HEPES, pH 7.5, 30 °C) is reported as 4.0 ± 1.1 µM.

For Nc1nc(N)c2[nH]cnc2n1, the KD [1, 7] was 4.1 ± 0.6 µM and the KD [3] was 13 ± 1.1 µM.

In the case of Nc1nc(OCc2ccccc2)c2[nH]cnc2n1, the binding [1, 8] is reported as “no”.

In the case of Nc1nc2[nH]cnc2c(=O)[nH]1, the binding [2, 9] is reported as “no”.

In the case of Nc1ncc2[nH]cnc2n1, the KD [1, 7] is reported as 4.4 ± 1.2 µM.

For Nc1ncnc2[nH]cnc12, the binding [1, 9] was “no”, the KD ([2]; 50 mM K-HEPES, pH 7.5, 30 °C) was 0.47 ± 0.04 µM and the KD [4] was 2.1 ± 0.19 µM. For the same molecule, the KD [5] was 6.0 ± 1.1 µM.

In the case of O=c1[nH]c(=O)c2[nH]cnc2[nH]1, the binding [2, 9] is reported as “no”.

For O=c1[nH]cnc2nc[nH]c12, the binding ([1]; pH 7.5 to 6.0, no change, apparent) was “yes”, the binding [2, 9] was “no” and the KD [6] was 3.3 ± 0.32 µM. The KD [3] was 9.5 ± 0.22 µM.

For c1coc(CNc2ncnc3[nH]cnc23)c1, the binding [2, 8] was “no”.
